Experimental data published in ChEMBL document CHEMBL1201862, “PubChem BioAssay data set” (2004).
Activity calls are given as the source filed them. Rule as the data show it: actives have a measured IC50 and inactives only a lower limit.

Biological target: Envelope glycoprotein gp160 (Human immunodeficiency virus 1, UniProt Q6QLK5)
Assay: cell-free HIV fusion peptide-binding blockers – biochemical, uHTS, fluorescence dequenching, […] (AID 1986)

Chain of Envelope glycoprotein gp160 (Q6QLK5 whole entry, the tested form may be a part): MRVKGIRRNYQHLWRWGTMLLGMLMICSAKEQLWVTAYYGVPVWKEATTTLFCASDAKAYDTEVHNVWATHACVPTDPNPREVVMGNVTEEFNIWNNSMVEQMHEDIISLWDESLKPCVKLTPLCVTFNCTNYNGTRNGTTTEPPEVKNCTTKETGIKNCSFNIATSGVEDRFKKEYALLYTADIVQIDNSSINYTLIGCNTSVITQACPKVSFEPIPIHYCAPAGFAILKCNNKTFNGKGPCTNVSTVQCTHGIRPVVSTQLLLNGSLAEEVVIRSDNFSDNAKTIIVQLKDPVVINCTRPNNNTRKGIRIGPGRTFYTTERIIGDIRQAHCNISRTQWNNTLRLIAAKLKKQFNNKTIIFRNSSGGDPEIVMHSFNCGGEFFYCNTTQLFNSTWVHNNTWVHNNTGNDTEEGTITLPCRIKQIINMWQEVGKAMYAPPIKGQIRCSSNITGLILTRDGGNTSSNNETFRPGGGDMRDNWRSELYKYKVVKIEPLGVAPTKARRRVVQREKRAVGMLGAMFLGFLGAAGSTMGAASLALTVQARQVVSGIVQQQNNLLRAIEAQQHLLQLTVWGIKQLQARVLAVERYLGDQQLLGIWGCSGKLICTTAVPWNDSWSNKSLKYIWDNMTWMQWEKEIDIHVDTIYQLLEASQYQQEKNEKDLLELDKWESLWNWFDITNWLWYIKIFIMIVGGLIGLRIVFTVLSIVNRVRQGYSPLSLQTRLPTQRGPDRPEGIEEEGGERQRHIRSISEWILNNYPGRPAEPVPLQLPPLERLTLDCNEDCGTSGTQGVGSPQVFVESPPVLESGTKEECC

CC1(C)CC(=O)C2=C(C1)c1c(ccc3ccccc13)NC2c1cc([N+](=O)[O-])cc([N+](=O)[O-])c1O (stereo not drawn)
IC50: 9.83 µM (active)

Cc1ccc2nc(N3C(=O)C(O)=C(C(=O)c4ccco4)C3c3cccc(O)c3)sc2c1 (stereo not drawn)
IC50: 16.9 µM (active)

CC(C)COc1ccc(-c2nn(-c3ccccc3)cc2/C=C2/SC(=S)N(CC(=O)O)C2=O)cc1
IC50: 8.09 µM (active)
